Results reported in patent US8987338B2, “Active ingredient of a medicinal agent, a medicinal agent, a pharmaceutical composition and method for treating dementia syndrome patients” (priority 2007, dated 2015).

How the values were obtained:
[1] = tested on: patients with Parkinson's syndrome; assay: Clinical trial: unified scale for evaluation of Parkinsonism; assay type: in vivo, human; settings: 3 months of treatment
Protocol: The efficacy of the treatment of Alzheimer-type dementias with marked intellectual-mnestic memory loss with polyprenols of formula (1) and a comparison of the efficacy of Ropren and Gliatilin was studied in patients during a 3-month course of treatment. Treatment efficacy on various functions before and after the treatment was assessed using the international scale MMSE ((evaluation of mental status—Mini-Mental State Examination, MMSE) Folstcin et al, 1975), “list with symptoms” questionnaire, unified scale for evaluation of Parkinsonism, EEG data, and biochemical parameters of the blood.
After treatment with Ropren, the Parkinson's syndrome decreased (on average by 5 points) in almost all patients, i.e., in 23 out of 25 patients or in 92%. This positive effect was found as early as 1 month after commencement of Ropren therapy. In the case of Gliatilin, improvement of Parkinson's syndrome was less pronounced (on average by 3 points) using the Parkinsonism rating scale.

[2] = tested on: patients with vascular dementia of the Alzheimer's type; assay: Clinical trial: electroencephalography (EEG) before and after therapy; assay type: in vivo, human; settings: before vs after treatment (about 3 months), individual patients or group
Protocol: MMSE scale (parameter of evaluation of intellectually-mnestic functions of a patient before and after treatment) was used for the evaluation of intellect. […] Electroencephalography (EEG) was performed in 12 patients (48%) before and after the Ropren therapy.

C[N+](C)(C)CCOP(=O)([O-])OC[C@H](O)CO [Gliatilin, choline alfoscerate]
average decrease of Parkinson's syndrome on Parkinsonism rating scale [1]: 3 points
Changes in EEG [2]: No changes
